Experimental data from US12325696B2, “Indazole derivative, preparation method therefor, and pharmaceutical application thereof” (JIANGSU HENGRUI MEDICINE CO., LTD., priority 2019, dated 2025).
pIC50: −log10 of the molar value.

Assays:
MCF7 ERαY537S = test: Inhibition of proliferation of MCF7 cell expressing ERα Y537S mutant; type: cell-based; conditions: Homo sapiens, 144 hours; for Emax: read-out: Maximum inhibition
How it was run: (§1)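 MCF7 cells stably expressing lentiviral ERα Y537S or D538G mutants, seeded 3,000 cells/well, then exposed in 2% FBS MEM to nine 4-fold dilutions from 100 nM for 144 h at 37° C. Viability read by CellTiter-Glo luminescence; IC50 fitted from concentration-response.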

MCF7 D538G = test: Inhibition of proliferation of MCF7 cell expressing ERα D538G mutant; type: cell-based; conditions: Homo sapiens, 144 hours; for Emax: read-out: Maximum inhibition
How it was run: as §1

Row | SMILES | pIC50 (MCF7 ERαY537S) | Emax (MCF7 ERαY537S) [%] | pIC50 (MCF7 D538G) | Emax (MCF7 D538G) [%]
1 | CN(C)C(=O)/C=C/CN1CCC[C@@H](Oc2ccc(/C(=C(/CC(F)(F)F)c3ccccc3)c3ccc4[nH]nc(F)c4c3)cn2)C1 [Example 14, (E)-N,N-Dimethyl-4-((R)-3-((5-((Z)-4,4,4-trifluoro-1-(3-fluoro-1H-indazol-5-yl)-2-phenylbut-1-en-1-yl)pyridin-2-yl)oxy)piperidin-1-yl)but-2-enamide] | 8.22 | 97 | 8.52 | 107
2 | CN(C)C(=O)/C=C/CNC1(COc2ccc(/C(=C(/CC(F)(F)F)c3ccccc3)c3ccc4[nH]nc(F)c4c3)cn2)CC1 [Example 39, (E)-N,N-Dimethyl-4-((1-(((5-((Z)-4,4,4-trifluoro-1-(3-fluoro-1H-indazol-5-yl)-2-phenylbut-1-en-1-yl)pyridin-2-yl)oxy)methyl)cyclopropyl)amino)but-2-enamide] | 9.00 | 112 | 9.22 | 105
3 | O=C(/C=C/CN1CCC[C@@H](Oc2ccc(/C(=C(/CC(F)(F)F)c3ccccc3)c3ccc4[nH]nc(F)c4c3)cn2)C1)N1CCCC1 [Example 15, (E)-1-(Pyrrolidin-1-yl)-4-((R)-3-((5-((Z)-4,4,4-trifluoro-1-(3-fluoro-1H-indazol-5-yl)-2-phenylbut-1-en-1-yl)pyridin-2-yl)oxy)piperidin-1-yl)but-2-en-1-one] | 8.70 | 102 | 9.00 | 105
4 | O=C(/C=C/CNC1(COc2ccc(/C(=C(/CC(F)(F)F)c3ccccc3)c3ccc4[nH]nc(F)c4c3)cn2)CC1)N1CC(O)C1 [Example 40, (E)-1-(3-Hydroxyazetidin-1-yl)-4-((1-(((5-((Z)-4,4,4-trifluoro-1-(3-fluoro-1H-indazol-5-yl)-2-phenylbut-1-en-1-yl)pyridin-2-yl)oxy)methyl)cyclopropyl)amino)but-2-en-1-one] | 9.30 | 112 | 9.70 | 106
5 | O=C(/C=C/CNC1(COc2ccc(/C(=C(/CC(F)(F)F)c3ccccc3)c3ccc4[nH]nc(F)c4c3)cn2)CC1)N1CCO[C@@H](CO)C1 [Example 42, (E)-1-((R)-2-(Hydroxymethyl)morpholino)-4-((1-(((5-((Z)-4,4,4-trifluoro-1-(3-fluoro-1H-indazol-5-yl)-2-phenylbut-1-en-1-yl)pyridin-2-yl)oxy)methyl)cyclopropyl)amino)but-2-en-1-one] | 9.70 | 107 | 10.00 | 105
6 | O=C(/C=C/CNC1(COc2ccc(/C(=C(/CC(F)(F)F)c3ccccc3)c3ccc4[nH]nc(F)c4c3)cn2)CC1)N1CC[C@H](O)C1 [Example 41, (E)-1-((S)-3-Hydroxypyrrolidin-1-yl)-4-((1-(((5-((Z)-4,4,4-trifluoro-1-(3-fluoro-1H-indazol-5-yl)-2-phenylbut-1-en-1-yl)pyridin-2-yl)oxy)methyl)cyclopropyl)amino)but-2-en-1-one] | 9.22 | 111 | 9.70 | 106
7 | O=C(/C=C/CNC1(COc2ccc(/C(=C(/CC(F)(F)F)c3ccccc3)c3ccc4[nH]nc(F)c4c3)cn2)CC1)N1CCOCC1 [Example 1, (E)-1-Morpholino-4-((1-(((5-((Z)-4,4,4-trifluoro-1-(3-fluoro-1H-indazol-5-yl)-2-phenylbut-1-en-1-yl)pyridin-2-yl)oxy)methyl)cyclopropyl)amino)but-2-en-1-one] | 8.52 | 100 | 8.70 | 100
